pEC50, pIC50: −log10 of the molar value.

In experiment [1] the target is T1, ciGPR84 (Ctenopharyngodon idella, UniProt A0A8K1PH93). In words: pGL4.29 (CRE) luciferase reporter assay, inhibition of forskolin-induced cAMP signaling in HEK293T cells transfected with ciGPR84. As to conditions: HEK293T co-transfected with pciGPR84 and pGL4.29, 5 μM forskolin, 6 h treatment; for pIC50: read-out: IC50 (half-maximal inhibitory concentration) on cAMP through ciGPR84. The class given is cell-based, grass carp (Ctenopharyngodon idella). The procedure:
(§1) Human embryonic kidney cells HEK293T obtained from Beyotime Biotechnology (Shanghai, China) were cultured with Dulbecco’s Modified Eagle Medium (DMEM) containing a 10% fetal bovine serum in an incubator (37 °C and 5% CO2 humidified atmosphere). The cells were plated into 24-well plates and cultured for 24 h before assays. The Countess 3 cell counter (Invitrogen, Waltham, MA, USA) was used for cell counting.
(§2) The functionality of ciGPR84 was assessed using our established method. Specifically, the coding sequence (CDS) of ciGPR84 was subcloned into the pcDNA3.1 (+) vector (Invitrogen, Carlsbad, CA, USA), resulting in the construction of pcDNA3.1-ciGPR84 (pciGPR84). HEK293T cells were co-transfected with pciGPR84 (or pcDNA3.1 empty vector), two luciferase reporter vectors (pGL4.29 and pGL4.33) containing a cAMP response element (CRE) and serum response element (SRE), respectively, and pEGFP-N1 (as an internal control for transfection normalization) in a mixture with polyethyleneimine (PEI) transfection reagent (Fusheng Biotechnology, Shanghai, China). The cells were then incubated in the original medium for 24 h, transferred to a 48-well plate, and grown for an additional 24 h to reach a cell density of 2 × 10^5 cells per well. […] It is important to note that due to the anticipated inhibitory effect of MCFA on the intracellular cAMP, 5 μM forskolin was added to all wells transfected with pGL4.29 to pre-activate the cellular adenylyl cyclase.
(§3) After the treatment, cells were lysed with 1 × passive lysis buffer (Beyotime Biotechnology, Shanghai, China), and a luciferase substrate was added to initiate a glow-generating reaction. The luminescence signals were measured using a Tecan F200 (Tecan, Männedorf, Switzerland) microplate reader to determine the relative luciferase activity in each well. Three independent experiments were performed for each agonist concentration (n = 3), and the data were presented as a mean ± SEM.
(§4) A data analysis was performed using GraphPad Prism 7 software (GraphPad Software, San Diego, CA, USA).

For experiment [2], the target named is T1, ciGPR84. In words: pGL4.33 (SRE) luciferase reporter assay, activation of ERK signaling in HEK293T cells transfected with ciGPR84. As to conditions: HEK293T co-transfected with ciGPR84 and pGL4.33 (SRE-luciferase), 6 h treatment; for pEC50: read-out: EC50 for activation of ERK signaling through ciGPR84. In kind it is cell-based, grass carp (Ctenopharyngodon idella). The procedure:
as §1, §2, §3, §4
Background: A reporter such as luciferase makes a cellular process visible.

The test system of a further experiment is mouse GPR84. Also on record: method as in PMID 16966319. As to conditions: cited from earlier work.

T1 sequence (A0A8K1PH93 entry or part of it): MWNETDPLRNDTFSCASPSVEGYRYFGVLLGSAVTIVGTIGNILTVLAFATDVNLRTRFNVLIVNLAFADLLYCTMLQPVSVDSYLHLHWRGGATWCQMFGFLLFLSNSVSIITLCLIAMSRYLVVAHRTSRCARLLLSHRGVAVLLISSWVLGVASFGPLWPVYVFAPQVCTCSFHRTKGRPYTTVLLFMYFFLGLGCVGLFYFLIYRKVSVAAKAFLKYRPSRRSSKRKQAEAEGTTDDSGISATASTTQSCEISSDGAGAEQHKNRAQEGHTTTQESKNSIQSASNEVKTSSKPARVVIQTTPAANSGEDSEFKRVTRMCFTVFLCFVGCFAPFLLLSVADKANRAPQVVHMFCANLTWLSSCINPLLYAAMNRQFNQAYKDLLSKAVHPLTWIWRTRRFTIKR

Consider `c1ccc2c(Cc3c[nH]c4ccccc34)c[nH]c2c1` [DIM, diindolylmethane], for which the “inhibition of cAMP generation through ciGPR84” value on ciGPR84 [1] (DIM 10^−8 to 10^−3) was “did not lead to the inhibition of cAMP generation”. In addition, on ciGPR84 [2] (DIM 10^−8 to 10^−3), the “activation of ERK signaling through ciGPR84” value was “did not activate the ERK signaling”.

What is called pEC50 is the EC50 on a negative log10 scale, so that one unit is a factor of ten. On to `CCCCCCCCCC(=O)O` [capric acid], for which the pEC50 in the experiment with mouse GPR84 was 5.40.

Take `CCCCCCCCCCCC(=O)O` [lauric acid]: the pIC50 on ciGPR84 [1] is 3.52. In addition, the negative-log EC50 (pEC50) is 2.37 at ciGPR84 [2] and 5.05 in the experiment with mouse GPR84.

With `CCCCCCCCC(=O)O` [nonanoic acid], the negative-log EC50 (pEC50) in the experiment on mouse GPR84 is 4.28.

For the compound `CCCCCCCCCCC(=O)O` [undecanoic acid], at ciGPR84 [1], the pIC50 was 2.83. The pEC50 at ciGPR84 [2] was 1.86.

The values above are taken from PMC10571743, “Molecular Cloning, Tissue Distribution, and Pharmacological Characterization of GPR84 in Grass Carp (Ctenopharyngodon Idella)” (Animals : an Open Access Journal from MDPI, 2023).
